The results in this text go back to patent US20230339937A1, “CONDENSED RING COMPOUNDS THAT INHIBIT H-PGDS” (SATO PHARMACEUTICAL CO., LTD., priority 2020, published 2023).

The target of the experiment is T1, Recombinant human H-PGDS (Homo sapiens, UniProt O60760).
T1 construct: made in house; host or cells: E. coli
Description: H-PGDS inhibitory activity (prostaglandin D2 production from prostaglandin H2, measured by LC-MS/MS). Type of experiment: biochemical. The following applies: recombinant human H-PGDS 1.0 nM expressed in E. coli; prostaglandin H2 25 μM; preincubated 15 minutes on ice, reacted on ice for 1 minute; concentration that inhibits prostaglandin D2 production by 50%. As to the method: The H-PGDS inhibitory activity of each Example compound was measured according to the method reported by LIN, Jiang. et al. (NO 2007/041634).
Recombinant human H-PGDS (final concentration: 1.0 nM) expressed in E. coli was mixed in an assay buffer containing 20 mM Tris-HCl (pH 8.0), 2 mM magnesium chloride, 2 mM reduced glutathione, and 0.5 mg/mL γ-globulin, and 150 μL of the mixture was dispensed into a 8-strip PCR tube (BM Equipment Co., Ltd.). Test compounds (Example compounds) (16.5 μL) at various concentrations dissolved in DMSO were added and the mixture was preincubated for 15 minutes on ice.
Prostaglandin H2 (final concentration: 25 μM) (Cayman Chemical) was dispensed into another 8-strip PCR tube, and the solvent was dried and solidified using a vacuum concentrator (Thermo Fisher Scientific). To the dried and solidified prostaglandin H2 was added 50 μL of the assay buffer containing H-PGDS and each test compound after the preincubation, and the mixture was reacted on ice for 1 minute. 45 μL of this mixture was added to 45 μL of a stop solution (50 mM aqueous citric acid solution containing iron chloride at a final concentration of 4 mg/mL) to stop the reaction. Then, the reaction solution was deproteinized, added to a 96 square deep well plate (SHONANMARUHACHI STEC Co., Ltd.), and the prostaglandin D2 concentration in the reaction solution was measured by LC-MS/MS. ACQUITY (registered trademark) TQD (Waters) was used as a measuring instrument.
Prostaglandin Da production activity (f) in the group with each test compound when a value obtained by subtracting the amount of production of prostaglandin D2 in the group without enzyme, which is non-specific production of prostaglandin D2, from the amount of production of prostaglandin Da in the group without test compound (DMSO-addition group) in each 8-strip PCR tube is 100% was calculated.

T1 sequence (O60760 whole entry): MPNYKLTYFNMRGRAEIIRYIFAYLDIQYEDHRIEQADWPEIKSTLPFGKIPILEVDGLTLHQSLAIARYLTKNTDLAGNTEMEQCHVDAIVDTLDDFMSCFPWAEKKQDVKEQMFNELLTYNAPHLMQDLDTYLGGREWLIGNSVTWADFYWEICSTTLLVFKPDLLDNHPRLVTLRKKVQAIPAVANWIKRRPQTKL

In general, IC50 refers to the midpoint of a concentration-inhibition curve. Consider `CC(C)N(CCNC(=O)c1ccc(-c2nccc3[nH]ccc23)cc1)C(C)C` [Example 25, N-[2-(diisopropylamino)ethyl]-4-(1H-pyrrolo[3,2-c]pyridin-4-yl)benzamide], for which the IC50 amounted to 1.6 nM.
With `O=C(NCc1ccco1)c1ccc(-c2nccc3[nH]ccc23)cc1` [Example 26, N-(furan-2-ylmethyl)-4-(1H-pyrrolo[3,2-c]pyridin-4-yl)benzamide] the figure was 1.7 nM; with `CCOCCNC(=O)c1ccc(-c2nccc3[nH]ccc23)cc1` [Example 27, N-(2-ethoxyethyl)-4-(1H-pyrrolo[3,2-c]pyridin-4-yl)benzamide], 0.98 nM; with `CC(=O)NCCNC(=O)c1ccc(-c2nccc3[nH]ccc23)cc1` [Example 28, N-(2-acetamidoethyl)-4-(1H-pyrrolo[3,2-c]pyridin-4-yl)benzamide], 1.4 nM.
Under `CC(=O)NCCCCNC(=O)c1ccc(-c2nccc3[nH]ccc23)cc1` [Example 29, N-(4-acetamidobutyl)-4-(1H-pyrrolo[3,2-c]pyridin-4-yl)benzamide] stands 0.46 nM; under `O=C(NCCCO)c1ccc(-c2nccc3[nH]ccc23)cc1` [Example 30, N-(3-hydroxypropyl)-4-(1H-pyrrolo[3,2-c]pyridin-4-yl)benzamide], 0.65 nM.
With `CC(O)CNC(=O)c1ccc(-c2nccc3[nH]ccc23)cc1` (stereo not shown) [Example 31, N-(2-hydroxypropyl)-4-(1H-pyrrolo[3,2-c]pyridin-4-yl)benzamide] the figure was 1.5 nM.
In the case of `CC(C)(O)CNC(=O)c1ccc(-c2nccc3[nH]ccc23)cc1` [Example 32, N-(2-hydroxy-2-methylpropyl)-4-(1H-pyrrolo[3,2-c]pyridin-4-yl)benzamide], the IC50 turned out to be 1.5 nM.
With `CCC(O)CNC(=O)c1ccc(-c2nccc3[nH]ccc23)cc1` (stereo not shown) [Example 33, N-(2-hydroxybutyl)-4-(1H-pyrrolo[3,2-c]pyridin-4-yl)benzamide] the figure was 1.1 nM.
Take `O=C(NCC(O)CO)c1ccc(-c2nccc3[nH]ccc23)cc1` (stereo not shown) [Example 34, N-(2,3-dihydroxypropyl)-4-(1H-pyrrolo[3,2-c]pyridin-4-yl)benzamide]: the IC50 came out at 2.4 nM.
Regarding `O=C(NCc1cccc(OC(F)F)c1)c1ccc(-c2nccc3[nH]ccc23)cc1` [Example 35, N-[3-(difluoromethoxy)benzyl]-4-(1H-pyrrolo[3,2-c]pyridin-4-yl)benzamide], the IC50 was found to be 1.6 nM.
Under `O=C(NCC1CCCC1)c1ccc(-c2nccc3[nH]ccc23)cc1` [Example 36, N-(cyclopenthyl-methyl)-4-(1H-pyrrolo[3,2-c]pyridin-4-yl)benzamide] stands 0.83 nM; under `Cn1nccc1CNC(=O)c1ccc(-c2nccc3[nH]ccc23)cc1` [Example 37, N-[(1-methyl-1H-pyrazol-5-yl)methyl]-4-(1H-pyrrolo[3,2-c]pyridin-4-yl)benzamide], 0.86 nM.
Under `Cc1cc(CNC(=O)c2ccc(-c3nccc4[nH]ccc34)cc2)nn1C` [Example 38, N-[(1,5-dimethyl-1H-pyrazol-3-yl)methyl]-4-(1H-pyrrolo[3,2-c]pyridin-4-yl)benzamide] stands 1.3 nM.
Under `Cc1nn(C)cc1CNC(=O)c1ccc(-c2nccc3[nH]ccc23)cc1` [Example 39, N-[(1,3-dimethyl-1H-pyrazol-4-yl)methyl]-4-(1H-pyrrolo[3,2-c]pyridin-4-yl)benzamide] stands 1.1 nM; under `Cc1nn(C)c(C)c1CNC(=O)c1ccc(-c2nccc3[nH]ccc23)cc1` [Example 40, 4-(1H-pyrrolo[3,2-c]pyridin-4-yl)-N-[(1,3,5-trimethyl-1H-pyrazol-4-yl)methyl] benzamide], 0.89 nM.
Consider `Cn1cncc1CNC(=O)c1ccc(-c2nccc3[nH]ccc23)cc1` [Example 41, N-[(1-methyl-1H-imidazol-5-yl)methyl]-4-(1H-pyrrolo[3,2-c]pyridin-4-yl)benzamide], for which the IC50 was 0.63 nM.
For `Cc1c(CNC(=O)c2ccc(-c3nccc4[nH]ccc34)cc2)cnn1C` [Example 42, N-[(1,5-dimethyl-1H-pyrazol-4-yl)methyl]-4-(1H-pyrrolo[3,2-c]pyridin-4-yl)benzamide], the IC50 was determined as 0.74 nM.
With `O=C(NCc1cnn(CC(F)(F)F)c1)c1ccc(-c2nccc3[nH]ccc23)cc1` [Example 43, 4-(1H-pyrrolo[3,2-c]pyridin-4-yl)-N-{[1-(2,2,2-trifluoroethyl)-1H-pyrazol-4-yl]methyl} benzamide] the figure was 1.3 nM; with `CCCn1ccc(CNC(=O)c2ccc(-c3nccc4[nH]ccc34)cc2)n1` [Example 44, N-[(1-propyl-1H-pyrazol-3-yl)methyl]-4-(1H-pyrrolo[3,2-c]pyridin-4-yl)benzamide], 0.98 nM; with `COCCn1nc(C)c(CNC(=O)c2ccc(-c3nccc4[nH]ccc34)cc2)c1C` [Example 45, N-{[1-(2-methoxyethyl)-3,5-dimethyl-1H-pyrazol-4-yl]methyl}-4-(1H-pyrrolo[3,2-c]pyridin-4-yl)benzamide], 0.91 nM.
Under `O=C(NCCCN1CCS(=O)(=O)CC1)c1ccc(-c2nccc3[nH]ccc23)cc1` [Example 46, N-[3-(1,1-dioxidothiomorpholino)propyl]-4-(1H-pyrrolo[3,2-c]pyridin-4-yl)benzamide] stands 0.63 nM; under `NS(=O)(=O)c1ccc(CCNC(=O)c2ccc(-c3nccc4[nH]ccc34)cc2)cc1` [Example 47, 4-(1H-pyrrolo[3,2-c]pyridin-4-yl)-N-(4-sulfamoylphenethyl) benzamide], 1.1 nM.
With `COCCn1cc(CNC(=O)c2ccc(-c3nccc4[nH]ccc34)cc2)cn1` [Example 48, N-{[1-(2-methoxyethyl)-1H-pyrazol-4-yl]methyl}-4-(1H-pyrrolo[3,2-c]pyridin-4-yl)benzamide] the figure was 0.72 nM; with `Cc1cc(CNC(=O)c2ccc(-c3nccc4[nH]ccc34)cc2)[nH]n1` [Example 49, N-[(3-methyl-1H-pyrazol-5-yl)methyl]-4-(1H-pyrrolo[3,2-c]pyridin-4-yl)benzamide], 1.2 nM.
As for `Cn1cc(Br)c(CNC(=O)c2ccc(-c3nccc4[nH]ccc34)cc2)n1` [Example 50, N-[(4-bromo-1-methyl-1H-pyrazol-3-yl)methyl]-4-(1H-pyrrolo[3,2-c]pyridin-4-yl)benzamide], the IC50 worked out at 1.4 nM.
For the compound `CCn1nccc1CNC(=O)c1ccc(-c2nccc3[nH]ccc23)cc1` [Example 51, N-[(1-ethyl-1H-pyrazol-5-yl)methyl]-4-(1H-pyrrolo[3,2-c]pyridin-4-yl)benzamide], the IC50 was determined as 0.63 nM.
With `Cn1ccnc1CNC(=O)c1ccc(-c2nccc3[nH]ccc23)cc1` [Example 52, N-[(1-methyl-1H-imidazol-2-yl)methyl]-4-(1H-pyrrolo[3,2-c]pyridin-4-yl)benzamide] the figure was 1.6 nM; with `Cn1ccc(CNC(=O)c2ccc(-c3nccc4[nH]ccc34)cc2)n1` [Example 53, N-[(1-methyl-1H-pyrazol-3-yl)methyl]-4-(1H-pyrrolo[3,2-c]pyridin-4-yl)benzamide], 1.3 nM.
Under `O=C(NCc1cc[nH]n1)c1ccc(-c2nccc3[nH]ccc23)cc1` [Example 54, N-[(1H-pyrazol-3-yl)methyl]-4-(1H-pyrrolo[3,2-c]pyridin-4-yl)benzamide] stands 1.2 nM; under `Cn1cc(CNC(=O)c2ccc(-c3nccc4[nH]ccc34)cc2)cn1` [Example 55, N-[(1-methyl-1H-pyrazol-4-yl)methyl]-4-(1H-pyrrolo[3,2-c]pyridin-4-yl)benzamide], 1.2 nM.
In the case of `O=C(NCc1ccccc1Cl)c1ccc(-c2nccc3[nH]ccc23)cc1` [Example 56, N-(2-chlorobenzyl)-4-(1H-pyrrolo[3,2-c]pyridin-4-yl)benzamide], the IC50 was determined as 1.7 nM.
For the compound `O=C(NCc1cccc(Cl)c1)c1ccc(-c2nccc3[nH]ccc23)cc1` [Example 57, N-(3-chlorobenzyl)-4-(1H-pyrrolo[3,2-c]pyridin-4-yl)benzamide], the IC50 was 1.4 nM.
Take `O=C(NCc1ccc(Cl)cc1)c1ccc(-c2nccc3[nH]ccc23)cc1` [Example 58, N-(4-chlorobenzyl)-4-(1H-pyrrolo[3,2-c]pyridin-4-yl)benzamide]: the IC50 is 0.64 nM.
Consider `O=C(NCc1ccccc1)c1ccc(-c2nccc3sccc23)cc1` [Example 59, N-benzyl-4-(thieno[3,2-c]pyridin-4-yl)benzamide], for which the IC50 is 9.6 nM.
Under `O=C(NCc1ccncc1)c1ccc(-c2nccc3sccc23)cc1` [Example 60, N-(pyridin-4-ylmethyl)-4-(thieno[3,2-c]pyridin-4-yl)benzamide] stands 15 nM; under `CC(O)CNC(=O)c1ccc(-c2nccc3sccc23)cc1` (stereo not shown) [Example 61, N-(2-hydroxypropyl)-4-(thieno[3,2-c]pyridin-4-yl)benzamide], 31 nM.
